Data on 4 compounds can be found in paper PMC6155776, “Synthesis of Novel Pyrazinamide Derivatives Based on 3-Chloropyrazine-2-carboxamide and Their Antimicrobial Evaluation” (Molecules : A Journal of Synthetic Chemistry and Natural …, 2017).

Test in all cases: microbe, parasite or virus in culture
Holding throughout (format): cell-based

One assay relates to M. tbc PRAHA 1. Conditions: Mycobacterium tuberculosis, read-out: Minimum inhibitory concentrations M. tbc PRAHA 1.
The test system of the next assay is M. tbc PRAHA 4. To be noted: Mycobacterium tuberculosis, read-out: Minimum inhibitory concentrations M. tbc PRAHA 4.
In the next assay the test system is M. tbc PRAHA 131. Conditions: Mycobacterium tuberculosis, read-out: Minimum inhibitory concentrations M. tbc PRAHA 131.
For a further assay, the system named is M. tbc 234/2005. Conditions: Mycobacterium tuberculosis, read-out: Minimum inhibitory concentrations M. tbc 234/2005.
A further assay has as its system M. tbc 9449/2007. To be noted: Mycobacterium tuberculosis, read-out: Minimum inhibitory concentrations M. tbc 9449/2007.
The subject of assay [1] is four MDR-TB strains and one XDR-TB strain. To be noted: Mycobacterium tuberculosis, read-out: MIC against resistant M. tuberculosis strains.

Structures are written as SMILES. In brackets after ≈: the same amount, converted by molar mass. Like-named read-outs stand apart in the source and are kept apart here.

Regarding `CO[C@H]1/C=C/O[C@@]2(C)Oc3c(C)c(O)c4c(O)c(c(/C=N/N5CCN(C)CC5)c(O)c4c3C2=O)NC(=O)/C(C)=C\C=C\[C@H](C)[C@H](O)[C@@H](C)[C@@H](O)[C@@H](C)[C@H](OC(C)=O)[C@@H]1C` [RFM, rifampicin, reference compound], the MIC in the assay on M. tbc PRAHA 1 (PRAHA1, 336 h) was over 15.6 µM; in the assay on M. tbc PRAHA 1 (PRAHA1, 504 h), over 15.6 µM; in the assay with M. tbc PRAHA 4 (PRAHA4, 336 h), over 15.6 µM; with M. tbc PRAHA 4 (PRAHA4, 504 h), over 15.6 µM; in the assay on M. tbc PRAHA 131 (PRAHA131, 336 h) it was over 15.6 µM; in the assay on M. tbc PRAHA 131 (PRAHA131, 504 h), over 15.6 µM. The MIC in the assay with M. tbc 234/2005 (234/2005, 336 h) is over 15.6 µM; in the assay with M. tbc 234/2005 (234/2005, 504 h) it was over 15.6 µM; with M. tbc 9449/2007 (9449/2007, 336 h) it was over 15.6 µM; in the assay with M. tbc 9449/2007 (9449/2007, 504 h), over 15.6 µM.

For the compound `Cc1ccc(CNc2nccnc2C(N)=O)cc1` [Compound 8, 3-[(4-Methylbenzyl)amino]pyrazine-2-carboxamide], the MIC in the assay on M. tbc PRAHA 1 (PRAHA1, 336 h) is 250 µM (≈ 60.6 µg/mL); in the assay on M. tbc PRAHA 1 (PRAHA1, 504 h) it was 250 µM (≈ 60.6 µg/mL); in the assay with M. tbc PRAHA 4 (PRAHA4, 336 h), 250 µM (≈ 60.6 µg/mL); with M. tbc PRAHA 4 (PRAHA4, 504 h), 250 µM (≈ 60.6 µg/mL); in the assay with M. tbc PRAHA 131 (PRAHA131, 336 h), 250 µM (≈ 60.6 µg/mL); with M. tbc PRAHA 131 (PRAHA131, 504 h), 250 µM (≈ 60.6 µg/mL). In addition, the MIC was 250 µM (≈ 60.6 µg/mL) in the assay on M. tbc 234/2005 (234/2005, 336 h); 250 µM (≈ 60.6 µg/mL) in the assay with M. tbc 234/2005 (234/2005, 504 h); 250 µM (≈ 60.6 µg/mL) in assay [1]; 250 µM (≈ 60.6 µg/mL) with M. tbc 9449/2007 (9449/2007, 336 h); 250 µM (≈ 60.6 µg/mL) in the assay with M. tbc 9449/2007 (9449/2007, 504 h).

For the compound `NC(=O)c1nccnc1NCc1ccc(N)cc1` [Compound 9, 3-[(4-Aminobenzyl)amino]pyrazine-2-carboxamide], the MIC was 62.5 µM (≈ 15.2 µg/mL) with M. tbc PRAHA 1 (PRAHA1, 336 h); 62.5 µM (≈ 15.2 µg/mL) in the assay with M. tbc PRAHA 1 (PRAHA1, 504 h); 62.5 µM (≈ 15.2 µg/mL) in the assay on M. tbc PRAHA 4 (PRAHA4, 336 h); 62.5 µM (≈ 15.2 µg/mL) with M. tbc PRAHA 4 (PRAHA4, 504 h); 62.5 µM (≈ 15.2 µg/mL) in the assay with M. tbc PRAHA 131 (PRAHA131, 336 h); 125 µM (≈ 30.4 µg/mL) with M. tbc PRAHA 131 (PRAHA131, 504 h). The MIC worked out at 62.5 µM (≈ 15.2 µg/mL) in the assay with M. tbc 234/2005 (234/2005, 336 h); 62.5 µM (≈ 15.2 µg/mL) in the assay on M. tbc 234/2005 (234/2005, 504 h); 62.5 µM (≈ 15.2 µg/mL) in assay [1]; 62.5 µM (≈ 15.2 µg/mL) with M. tbc 9449/2007 (9449/2007, 336 h); 62.5 µM (≈ 15.2 µg/mL) with M. tbc 9449/2007 (9449/2007, 504 h).

On to `NNC(=O)c1ccncc1` [INH, isoniazid, reference compound], for which the MIC was 15.6 µM (≈ 2.14 µg/mL) in the assay on M. tbc PRAHA 1 (PRAHA1, 336 h); 15.6 µM (≈ 2.14 µg/mL) in the assay with M. tbc PRAHA 1 (PRAHA1, 504 h); 15.6 µM (≈ 2.14 µg/mL) in the assay with M. tbc PRAHA 4 (PRAHA4, 336 h); 31.2 µM (≈ 4.29 µg/mL) in the assay on M. tbc PRAHA 4 (PRAHA4, 504 h); 15.6 µM (≈ 2.14 µg/mL) with M. tbc PRAHA 131 (PRAHA131, 336 h); 31.2 µM (≈ 4.29 µg/mL) in the assay with M. tbc PRAHA 131 (PRAHA131, 504 h). The MIC in the assay on M. tbc 234/2005 (234/2005, 336 h) is 15.6 µM (≈ 2.14 µg/mL); in the assay on M. tbc 234/2005 (234/2005, 504 h), 15.6 µM (≈ 2.14 µg/mL); with M. tbc 9449/2007 (9449/2007, 336 h) it was 62.5 µM (≈ 8.57 µg/mL); in the assay on M. tbc 9449/2007 (9449/2007, 504 h), 62.5 µM (≈ 8.57 µg/mL).
